Like-named read-outs stand apart in the source and are kept apart here.
Columns and labels:
[1] = biological target: EGFR (Homo sapiens (Human), UniProt P00533); assay: EGFR kinase inhibitory assay (ELISA); assay type: biochemical; conditions: for Selectivity Ratio (BTK and EGFR): EGFR IC50 relative to BTK IC50; for IC50: ELISA, 3 μmol/L ATP
Method: (§1) BTK, EGFR, BMX, or ITK Inhibitory Assay Procedure for BTK, BMX, EGFR and ITK Inhibitory Assay:
(§2) Kinase inhibitory activities of compounds were evaluated using the Enzyme-linked immunosorbent assay (ELISA). The kinase enzyme of BTK, BMX, EGFR and ITK were purchased from Carna Bioscience (Kobe, Japan). A total of 10 ng/mL antiphosphotyrosine (PY713) antibody (abcam, Cambridge Science Park, UK) was precoated in 96-well ELISA plates. The kinase enzymes in each reaction well were set to BTK (101.25 ng/mL), BMX (90 ng/mL), EGFR (90 ng/mL) or ITK (120 ng/mL) and incubated with indicated compounds in 1× reaction buffer (50 mmol/L HEPES pH 7.4, 20 mmol/L MgCl2, 0.1 mmol/L MnCl2, 1 mmol/L DTT) containing 20 μmol/L (the final concentration of substrate in ITK reaction was 30 μmol/L) substrate (NH2-ETVYSEVRK-biotin) at 25° C. for 1 h. Then, a total of 3 μmol/L ATP was added and the reaction was continued for 2 hrs. The products of reaction were transferred into 96-well ELISA plates containing antibody and incubated at 25° C. for 30 min. After incubation, the wells were washed with PBS and then incubated with horseradish peroxidase […]-conjugated streptavidin. The wells were visualized using 3,3′,5,5′-tetramethylbenzidine (TMB), and chromogenic reaction was ended with 2 mol/L H2SO4, the absorbance was read with a multimode plate reader (PerkinElmer, USA) at 450 nm. IC50 values and curve fits were obtained using Prism (GraphPad Software).

[2] = system: 293T; assay: Cell antiproliferative activity assay (CellTiter-Glo), 293T; assay type: cell-based; conditions: 72 hs, read-out: Cell Growth IC50 (nM) 293T
Method: (§3) Cell Antiproliferative Activity Assay
(§4) Cell antiproliferative activity was evaluated by the CellTiter-Glo (Promega, USA) assay. Make 1000× compounds solution in DMSO, add 1 μl 1000× compounds to […] growth medium to make 20× compounds. Dilute cell suspensions in growth medium to desired density and 95 μl were taken to 96-well plate. Add 5 μl 20× compounds into 96-well plate according to the plate map. Final DMSO concentration in each well was 0.1%. Then the cell was incubated at 37° C., 5% CO2 for 72 hs. Equilibrate the assay plate to room temperature before measurement. Add 20 μl of CellTiter-Glo© Reagent into each well. Mix contents for 2 minutes on an orbital shaker to induce cell lysis. Incubate at room temperature for 10 minutes to stabilize luminescent signal. Record luminescence using EnVision Multilabel Reader (PerkinElmer). Cell viability (CV %) was calculated relative to vehicle (DMSO) treated control wells using following formula: Cell viability (%)=(RLU compound−RLU blank)/(RLU control−RLU blank)*100%. The IC50 values were calculated using GraphPad Prism 6.0 software, fitting to a 4-parameter equation to generate concentration response curves. All assays were conducted with three parallel samples and three repetitions.

[3] = biological target: BMX (Homo sapiens (Human), UniProt P51813); assay: BMX kinase inhibitory assay (ELISA); assay type: biochemical; conditions: for Selectivity Ratio (BTK and BMX): BMX IC50 relative to BTK IC50; for IC50: ELISA, 3 μmol/L ATP
BMX, sequence (P51813 whole entry): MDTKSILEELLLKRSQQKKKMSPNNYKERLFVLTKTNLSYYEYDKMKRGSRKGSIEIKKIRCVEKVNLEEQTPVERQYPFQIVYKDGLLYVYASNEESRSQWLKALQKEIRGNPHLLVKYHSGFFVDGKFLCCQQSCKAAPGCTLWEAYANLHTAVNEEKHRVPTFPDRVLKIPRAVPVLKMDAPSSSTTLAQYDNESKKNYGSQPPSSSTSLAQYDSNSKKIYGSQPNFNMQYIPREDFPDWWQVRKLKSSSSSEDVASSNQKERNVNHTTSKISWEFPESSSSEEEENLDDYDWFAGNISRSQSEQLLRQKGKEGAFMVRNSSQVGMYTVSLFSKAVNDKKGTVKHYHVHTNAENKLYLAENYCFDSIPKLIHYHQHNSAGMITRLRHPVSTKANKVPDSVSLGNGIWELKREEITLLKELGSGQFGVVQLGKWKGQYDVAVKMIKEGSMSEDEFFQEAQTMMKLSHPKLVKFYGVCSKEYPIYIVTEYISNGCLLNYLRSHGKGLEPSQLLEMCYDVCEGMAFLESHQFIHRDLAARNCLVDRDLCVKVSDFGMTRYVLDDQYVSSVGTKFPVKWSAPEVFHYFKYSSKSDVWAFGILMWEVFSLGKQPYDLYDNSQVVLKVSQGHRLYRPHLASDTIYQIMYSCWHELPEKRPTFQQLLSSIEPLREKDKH
Method: as §1, §2

[4] = biological target: BTK (Homo sapiens (Human), UniProt Q06187); assay: BTK kinase inhibitory assay (ELISA); assay type: biochemical; conditions: 3 μmol/L ATP
BTK, sequence (Q06187 whole entry): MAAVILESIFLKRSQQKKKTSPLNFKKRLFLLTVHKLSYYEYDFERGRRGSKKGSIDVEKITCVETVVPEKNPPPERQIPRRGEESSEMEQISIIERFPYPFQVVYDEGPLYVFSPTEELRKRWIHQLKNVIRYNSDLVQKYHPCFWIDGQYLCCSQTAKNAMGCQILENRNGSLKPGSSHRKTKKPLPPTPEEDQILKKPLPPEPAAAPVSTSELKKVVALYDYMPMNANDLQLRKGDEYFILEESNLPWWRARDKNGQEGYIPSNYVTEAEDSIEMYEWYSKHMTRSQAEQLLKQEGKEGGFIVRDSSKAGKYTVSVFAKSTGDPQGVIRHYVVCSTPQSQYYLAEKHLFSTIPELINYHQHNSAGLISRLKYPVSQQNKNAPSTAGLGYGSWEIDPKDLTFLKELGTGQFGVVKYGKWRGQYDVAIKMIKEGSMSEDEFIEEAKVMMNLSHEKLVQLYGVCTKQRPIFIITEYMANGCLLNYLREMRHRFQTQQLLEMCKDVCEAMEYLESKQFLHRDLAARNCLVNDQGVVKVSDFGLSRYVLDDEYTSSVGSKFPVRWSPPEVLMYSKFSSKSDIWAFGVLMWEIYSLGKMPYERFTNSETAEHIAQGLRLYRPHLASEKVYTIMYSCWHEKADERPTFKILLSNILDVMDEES
Method: as §1, §2

[5] = biological target: ITK (Homo sapiens (Human), UniProt Q08881); assay: ITK kinase inhibitory assay (ELISA); assay type: biochemical; conditions: for IC50: ELISA, 3 μmol/L ATP; for Selectivity Ratio (BTK and ITK): ITK IC50 relative to BTK IC50
ITK, sequence (Q08881 whole entry): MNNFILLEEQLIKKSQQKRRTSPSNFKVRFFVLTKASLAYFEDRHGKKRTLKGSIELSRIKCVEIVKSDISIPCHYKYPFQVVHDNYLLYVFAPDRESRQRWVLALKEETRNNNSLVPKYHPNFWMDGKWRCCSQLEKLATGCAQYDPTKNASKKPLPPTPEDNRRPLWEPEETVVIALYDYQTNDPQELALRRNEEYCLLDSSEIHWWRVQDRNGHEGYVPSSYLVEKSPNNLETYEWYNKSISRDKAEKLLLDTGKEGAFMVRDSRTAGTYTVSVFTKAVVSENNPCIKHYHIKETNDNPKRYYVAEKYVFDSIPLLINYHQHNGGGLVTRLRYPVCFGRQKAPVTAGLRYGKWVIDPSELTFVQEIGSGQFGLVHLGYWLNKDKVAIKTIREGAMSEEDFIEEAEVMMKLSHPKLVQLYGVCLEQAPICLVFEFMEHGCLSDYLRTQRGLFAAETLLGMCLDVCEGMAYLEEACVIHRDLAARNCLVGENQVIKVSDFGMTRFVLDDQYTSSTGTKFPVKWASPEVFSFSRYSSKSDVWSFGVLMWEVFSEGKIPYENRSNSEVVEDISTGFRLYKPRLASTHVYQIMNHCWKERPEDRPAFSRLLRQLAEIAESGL
Method: as §1, §2

[6] = PK properties assay in SD rats; assay type: in vivo; conditions: rat, plasma
Method: Six SD rats were divided into two groups, and compound was administered by gavage and tail vein injection. The intravenous injection group was administered 2 min, 5 min, 15 min, 30 min, 1 h, 2 h, 4 h, 6 h, 8 h, and 12 h after administration. 0.25 mL of blood samples were collected from the posterior orbital venous plexus at 5 min, 15 min, 30 min, 1 h, 2 h, 4 h, 6 h, 8 h, 12 h, and 24 h after administration. LC-MS/MS method was used to determine the concentration of compound in plasma samples from SD rats, and the pharmacokinetic parameters were calculated using WinNolin software.

[7] = system: TMD8; assay: Cell antiproliferative activity assay (CellTiter-Glo), TMD8; assay type: cell-based; conditions: read-out: Cell Growth IC50 (nM) TMD8
Method: as §3, §4

[8] = system: Ramos; assay: Cell antiproliferative activity assay (CellTiter-Glo), Ramos; assay type: cell-based; conditions: 72 hs, read-out: Cell Growth IC50 (nM) Ramos
Method: as §3, §4

[9] = system: MOLM-13; assay: Cell antiproliferative activity assay (CellTiter-Glo), MOLM-13; assay type: cell-based; conditions: Homo sapiens; MOLM-13, 72 hs; read-out: Cell Growth IC50 (nM) MOLM-13
Method: as §3, §4

EGFR, sequence (P00533 25-1210): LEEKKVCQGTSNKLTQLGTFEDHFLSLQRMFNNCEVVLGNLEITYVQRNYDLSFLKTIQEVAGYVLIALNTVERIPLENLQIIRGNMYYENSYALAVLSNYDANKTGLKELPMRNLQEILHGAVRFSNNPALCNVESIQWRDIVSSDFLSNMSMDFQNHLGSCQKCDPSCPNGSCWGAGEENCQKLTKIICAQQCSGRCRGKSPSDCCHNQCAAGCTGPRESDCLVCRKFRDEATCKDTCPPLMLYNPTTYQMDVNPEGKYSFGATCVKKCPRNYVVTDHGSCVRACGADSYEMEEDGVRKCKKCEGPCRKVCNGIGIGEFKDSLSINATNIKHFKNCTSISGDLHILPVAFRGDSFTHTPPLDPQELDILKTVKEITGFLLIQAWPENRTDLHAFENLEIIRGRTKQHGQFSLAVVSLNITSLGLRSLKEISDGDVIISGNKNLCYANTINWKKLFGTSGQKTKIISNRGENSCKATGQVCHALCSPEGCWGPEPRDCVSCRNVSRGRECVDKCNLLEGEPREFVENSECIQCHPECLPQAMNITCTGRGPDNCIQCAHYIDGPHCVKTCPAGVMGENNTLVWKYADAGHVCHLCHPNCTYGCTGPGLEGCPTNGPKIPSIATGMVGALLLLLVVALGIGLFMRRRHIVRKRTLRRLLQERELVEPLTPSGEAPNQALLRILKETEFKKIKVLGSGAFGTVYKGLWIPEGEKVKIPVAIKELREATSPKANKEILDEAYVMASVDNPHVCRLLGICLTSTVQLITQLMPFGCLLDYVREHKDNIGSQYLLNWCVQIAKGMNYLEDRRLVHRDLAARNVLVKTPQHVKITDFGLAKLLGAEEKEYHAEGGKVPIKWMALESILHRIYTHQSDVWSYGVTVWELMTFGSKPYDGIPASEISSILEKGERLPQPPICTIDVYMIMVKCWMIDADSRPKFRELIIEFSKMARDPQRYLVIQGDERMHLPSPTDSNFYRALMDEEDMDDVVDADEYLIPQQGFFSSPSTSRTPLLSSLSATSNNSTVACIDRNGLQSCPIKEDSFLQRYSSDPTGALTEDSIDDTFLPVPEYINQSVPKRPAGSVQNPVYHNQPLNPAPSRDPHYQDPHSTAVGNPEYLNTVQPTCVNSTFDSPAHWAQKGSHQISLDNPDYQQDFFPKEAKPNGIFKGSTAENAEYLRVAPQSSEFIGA

SMILES: C=CC(=O)N1CCC(C2CCNn3c2nc(-c2ccc(Oc4ccccc4)cc2)c3C(N)=O)CC1 (single isomer, unassigned) [1a (peak 1)]
- Selectivity Ratio (BTK and EGFR) [1]: 2.00
- IC50 [1]: 5.2 nM
- IC50 ([2]; Homo sapiens, HEK-293T): 8450 nM
- Selectivity Ratio (BTK and BMX) [3]: 5.88
- IC50 [3]: 15.3 nM
- IC50 [4]: 2.6 nM
- IC50 [5]: 483 nM
- Selectivity Ratio (BTK and ITK) [5]: 185.6
- Vd ([6]; iv 5 mg/kg): 0.959 L/kg
- clearance ([6]; iv 5 mg/kg): 27 mL/min/kg
- half-life ([6]; iv 5 mg/kg): 24.6 min
- AUC ([6]; po 5 mg/kg): 3430 ng·h/mL
- Cmax ([6]; po 5 mg/kg): 923 ng/mL
- bioavailability ([6]; po 5 mg/kg): 52.9%
- half-life ([6]; po 5 mg/kg): 84.6 min
- IC50 ([7]; TMD8, 72 hs): 5.4 nM

SMILES: NC(=O)c1c(-c2ccc(Oc3ccccc3)cc2)nc2n1NCCC2C1CCN(C(=O)/C=C/C(F)(F)F)CC1 (single isomer, unassigned) [10a (peak 1)]
- Selectivity Ratio (BTK and EGFR) [1]: 365.37
- IC50 [1]: 2450 nM
- IC50 ([2]; Homo sapiens, HEK-293T): 1010 nM
- Selectivity Ratio (BTK and BMX) [3]: 3.12
- IC50 [3]: 20.9 nM
- IC50 [4]: 6.7 nM
- IC50 [5]: 2020 nM
- Selectivity Ratio (BTK and ITK) [5]: 301.5
- IC50 [8]: 1270 nM
- IC50 [9]: 3150 nM
- Vd ([6]; iv 5 mg/kg): 1.6 L/kg
- clearance ([6]; iv 5 mg/kg): 59.8 mL/min/kg
- half-life ([6]; iv 5 mg/kg): 18.6 min
- AUC ([6]; po 5 mg/kg): 1390 ng·h/mL
- Cmax ([6]; po 5 mg/kg): 703 ng/mL
- bioavailability ([6]; po 5 mg/kg): 47.2%
- half-life ([6]; po 5 mg/kg): 87 min
- IC50 ([7]; TMD8, 72 hs): 16.5 nM

SMILES: NC(=O)c1c(-c2ccc(Oc3ccccc3)cc2)nc2n1NCCC2C1CCN(C(=O)/C=C/C(F)(F)F)CC1 (single isomer, unassigned) [10b (peak 2)]
- Selectivity Ratio (BTK and EGFR) [1]: 638.75
- IC50 [1]: 39500 nM
- IC50 [2]: 1910 nM
- Selectivity Ratio (BTK and BMX) [3]: 2.32
- IC50 [3]: 144 nM
- IC50 [4]: 61.8 nM
- IC50 [5]: > 30000 nM
- Selectivity Ratio (BTK and ITK) [5]: >485.4
- IC50 [8]: 6440 nM
- IC50 ([7]; TMD8, 72 hs): 257 nM

SMILES: NC(=O)c1c(-c2ccc(Oc3ccccc3)cc2)nc2n1NCCC2C1CCN(C(=O)/C=C/C(F)(F)F)CC1 (centres unmarked) [Example 10, 2-(4-Phenoxy-phenyl)-8-[1-(4,4,4-trifluoro-but-2-enoyl)-piperidin-4-yl]-5,6,7,8-tetrahydro-imidazo[1,2-b]pyridazine-3-carboxamide]
- Selectivity Ratio (BTK and EGFR) [1]: 235.36
- IC50 [1]: 1930 nM
- IC50 ([2]; Homo sapiens, HEK-293T): 45300 nM
- Selectivity Ratio (BTK and BMX) [3]: 6.04
- IC50 [3]: 49.5 nM
- IC50 [4]: 8.2 nM
- IC50 [5]: 10800 nM
- Selectivity Ratio (BTK and ITK) [5]: 1314
- IC50 ([8]; Homo sapiens): 2760 nM
- IC50 ([7]; Homo sapiens, TMD8, TMD8, 72 hs): 51.6 nM

SMILES: C#CC(=O)N1CCC(C2CCNn3c2nc(-c2ccc(Oc4ccccc4)cc2)c3C(N)=O)CC1 (centres unmarked) [Example 11, 2-(4-phenoxyphenyl)-8-(1-propioloylpiperidin-4-yl)-5,6,7,8-tetrahydroimidazo[1,2-b]pyridazine-3-carboxamide]
- Selectivity Ratio (BTK and EGFR) [1]: 3.43
- IC50 [1]: 28.1 nM
- Selectivity Ratio (BTK and BMX) [3]: 2.78
- IC50 [3]: 22.8 nM
- IC50 [4]: 8.2 nM
- IC50 [5]: 225 nM
- Selectivity Ratio (BTK and ITK) [5]: 27.40
- IC50 ([8]; Homo sapiens): 725 nM
- IC50 [9]: 1100 nM

SMILES: NC(=O)c1c(-c2ccc(Oc3ccccc3)cc2)nc2n1NCCC2C1CN(C(=O)/C=C/C(F)(F)F)C1 (centres unmarked) [Example 20, (E)-2-(4-phenoxyphenyl)-8-(1-(4,4,4-trifluorobut-2-enoyl)azetidin-3-yl)-5,6,7,8-tetrahydroimidazo[1,2-b]pyridazine-3-carboxamide]
- Selectivity Ratio (BTK and EGFR) [1]: 405.5
- Selectivity Ratio (BTK and BMX) [3]: 8.79
- Selectivity Ratio (BTK and ITK) [5]: 1080.6
- IC50 ([8]; Homo sapiens): 294 nM
- IC50 [9]: 1360 nM

From patent publication US12552798B2, “Substituted imidazolecarboxamide as Bruton's tyrosine kinase inhibitors” (Henan Zhiwei Biomedicine Co., Ltd., priority 2019, dated 2026)
